Source: the supplement of paper PMC11451515

Experiments:
Conditions in all cases: 48 h
P12-Ichikawa [1] = assay: cell viability relative to DMSO control; higher = less cytotoxic
Method in brief: (§1)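 Viability, reported as a per-plate percentage of DMSO wells with cell-free wells as background, came from CellTiter-Glo One luminescence. Reading took place after 48 h at 37°C. Before that, NOMO1 or SEM (500 cells/well) or P12-Ichikawa (1000 cells/well) leukemia cells, adapted for at least four passages in each medium, were seeded in 1536-well plates (5 μl) and pin-dosed with library compounds in DMSO, 47 μM to 0.79 nM over 11 threefold points.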

SEM cells [2] = assay: as above
Method in brief: as §1

NOMO1 [3] = assay: as above
Method in brief: as §1

SEM cells [4] = assay: AUC of viability dose-response curve (% viability x log10 dose units); higher = less sensitive
Method in brief: (§2)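 In 1536-well plates, leukemia cells adapted to each medium (500 or 1000 cells/well) were exposed for 48 h at 37°C to library compounds in DMSO across 11 threefold doses, 47 μM down to 0.79 nM. Viability was read by CellTiter-Glo One luminescence and normalised per plate to DMSO and cell-free wells. A four-parameter log-logistic fit over log10 doses was integrated by trapezoidal rule. This yielded the area under the curve, with over-full-viability curves scaled and quality-control failures dropped.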

P12-Ichikawa [5] = assay: as above
Method in brief: as §2

NOMO1 [6] = assay: as above
Method in brief: as §2

COc1cc([C@@H]2c3cc4c(cc3[C@@H](O[C@@H]3O[C@@H]5CO[C@@H](c6cccs6)O[C@H]5[C@H](O)[C@H]3O)[C@H]3COC(=O)[C@H]23)OCO4)cc(OC)c1O
cell viability [%]
Conditions	NOMO1 [3]	P12-Ichikawa [1]	SEM cells [2]
HPLM + 10% dialyzed FBS, 0.000781 µM	92.7	89.9	94.9
HPLM + 10% dialyzed FBS, 0.00234 µM	97.4	91.6	85
HPLM + 10% dialyzed FBS, 0.00702 µM	115	92.9	89.8
HPLM + 10% dialyzed FBS, 0.0211 µM	111	93	95.1
HPLM + 10% dialyzed FBS, 0.0632 µM	103	90.1	83.1
HPLM + 10% dialyzed FBS, 0.19 µM	89.6	88.2	85
HPLM + 10% dialyzed FBS, 0.569 µM	97.7	83	90.8
HPLM + 10% dialyzed FBS, 1.71 µM	34.3	9.83	16.4
HPLM + 10% dialyzed FBS, 5.12 µM	116	71.4	77.9
HPLM + 10% dialyzed FBS, 15.4 µM	31.1	6.48	15.3
HPLM + 10% dialyzed FBS, 46.1 µM	13.8	6.62	4.57
RPMI 5 mM glucose + 10% FBS, 0.000781 µM	85.3	77.3	96.7
RPMI 5 mM glucose + 10% FBS, 0.00234 µM	85.6	87.9	120
RPMI 5 mM glucose + 10% FBS, 0.00702 µM	89.7	89.2	110
RPMI 5 mM glucose + 10% FBS, 0.0211 µM	97.2	95.8	103
RPMI 5 mM glucose + 10% FBS, 0.0632 µM	81.7	83.3	101
RPMI 5 mM glucose + 10% FBS, 0.19 µM	99.3	80.1	84.7
RPMI 5 mM glucose + 10% FBS, 0.569 µM	91.2	68	78.7
RPMI 5 mM glucose + 10% FBS, 1.71 µM	22.9	6.52	14.4
RPMI 5 mM glucose + 10% FBS, 5.12 µM	101	55.9	80.1
RPMI 5 mM glucose + 10% FBS, 15.4 µM	22.4	5.89	12.6
RPMI 5 mM glucose + 10% FBS, 46.1 µM	12.7	4.88	5.23
RPMI 5 mM glucose + 10% dialyzed FBS, 0.000781 µM	89.5	84.4	86.7
RPMI 5 mM glucose + 10% dialyzed FBS, 0.00234 µM	82.9	91.5	88.9
RPMI 5 mM glucose + 10% dialyzed FBS, 0.00702 µM	91	88.5	79
RPMI 5 mM glucose + 10% dialyzed FBS, 0.0211 µM	89.6	82.3	85.1
RPMI 5 mM glucose + 10% dialyzed FBS, 0.0632 µM	93.2	82.7	79.6
RPMI 5 mM glucose + 10% dialyzed FBS, 0.19 µM	90.6	74.6	68.6
RPMI 5 mM glucose + 10% dialyzed FBS, 0.569 µM	101	73.7	66.8
RPMI 5 mM glucose + 10% dialyzed FBS, 1.71 µM	32.4	8.53	9.66
RPMI 5 mM glucose + 10% dialyzed FBS, 5.12 µM	99.3	59	63.4
RPMI 5 mM glucose + 10% dialyzed FBS, 15.4 µM	25.2	6.51	11
RPMI 5 mM glucose + 10% dialyzed FBS, 46.1 µM	16.7	4.64	3.6

SEM cells [4]
Conditions	AUC of viability dose-response curve
HPLM + 10% dialyzed FBS	329
RPMI 5 mM glucose + 10% FBS	319
RPMI 5 mM glucose + 10% dialyzed FBS	284

CN(C)C/C=C/C(=O)Nc1cc2c(Nc3ccc(F)c(Cl)c3)ncnc2cc1O[C@H]1CCOC1
AUC of viability dose-response curve
Conditions	NOMO1 [6]	P12-Ichikawa [5]	SEM cells [4]
HPLM + 10% dialyzed FBS	339	337	320
RPMI 5 mM glucose + 10% FBS	342	338	304
RPMI 5 mM glucose + 10% dialyzed FBS	345	347	324
